These are literature values, as cited in patent publication US6759200B1, “Thymidine phosphorylase gene sequence variances having utility in determining the treatment of disease” (Nuvelo, Inc., priority 1998, dated 2004).

Counter-ions that a name gives are not always drawn. Like-named read-outs stand apart in the source and are kept apart here.

The subject of data set [1] is advanced colorectal cancer.
For data set [2] the following is noted: up to; depending on the regimen.
Data set [3] concerns the target T1, dihydropyrimidine dehydrogenase (DPD) (Homo sapiens, UniProt Q12882).
T1 construct: host or cells: human subjects in vivo (endogenous enzyme)
T1 sequence (Q12882 4-1025): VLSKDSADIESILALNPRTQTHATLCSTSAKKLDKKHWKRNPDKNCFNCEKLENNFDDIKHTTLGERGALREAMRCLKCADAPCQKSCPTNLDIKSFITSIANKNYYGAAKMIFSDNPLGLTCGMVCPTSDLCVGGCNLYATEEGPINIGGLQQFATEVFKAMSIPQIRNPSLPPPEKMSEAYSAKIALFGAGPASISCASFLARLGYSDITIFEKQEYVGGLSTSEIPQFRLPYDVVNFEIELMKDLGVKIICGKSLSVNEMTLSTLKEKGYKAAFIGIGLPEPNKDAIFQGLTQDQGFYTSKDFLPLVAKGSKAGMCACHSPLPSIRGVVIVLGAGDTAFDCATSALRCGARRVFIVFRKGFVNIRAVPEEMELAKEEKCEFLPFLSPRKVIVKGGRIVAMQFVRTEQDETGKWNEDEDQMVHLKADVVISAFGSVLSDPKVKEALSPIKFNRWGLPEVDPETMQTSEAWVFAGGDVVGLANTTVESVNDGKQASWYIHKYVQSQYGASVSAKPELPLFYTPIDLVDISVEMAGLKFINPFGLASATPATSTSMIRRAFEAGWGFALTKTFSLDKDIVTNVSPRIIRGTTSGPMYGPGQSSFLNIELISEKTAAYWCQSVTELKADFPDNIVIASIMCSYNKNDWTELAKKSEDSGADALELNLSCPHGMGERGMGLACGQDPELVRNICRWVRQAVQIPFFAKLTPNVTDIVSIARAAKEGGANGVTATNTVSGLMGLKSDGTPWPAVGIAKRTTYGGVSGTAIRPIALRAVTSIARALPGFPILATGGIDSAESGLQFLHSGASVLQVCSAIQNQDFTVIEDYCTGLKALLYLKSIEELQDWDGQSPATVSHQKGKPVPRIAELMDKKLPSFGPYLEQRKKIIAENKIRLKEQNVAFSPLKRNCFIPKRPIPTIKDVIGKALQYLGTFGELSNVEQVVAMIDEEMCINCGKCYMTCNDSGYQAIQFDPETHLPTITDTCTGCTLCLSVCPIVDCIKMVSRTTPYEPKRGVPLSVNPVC

For data set [4], the system named is Alzheimer's disease. The following applies: PDR.
Data set [5] deals with cultured glial cells.
Data set [6] concerns nucleoside transport. The following applies: nucleoside transport inhibitor paired with 5-FU and FA; Kohne et al. 1995.
Setting [7] is: people genetically deficient in DPD, Diasio et al. 1988.
Where [8] appears, read: Alzheimer's patients receiving Cognex.

With `O=c1[nH]cc(F)c(=O)[nH]1` [5-FU, 5-fluorouracil], the partial remissions in data set [1] (5-FU alone, advanced colorectal cancers) is given as 10-30%. For the same compound, the “patients with an objective response” value in data set [1] (advanced colorectal cancer) was 20-40%. In data set [1] (advanced colorectal cancer, of the objective responders), the “patients with a complete response (complete tumor disappearance)” value is reported as 1-5%. In addition, the “patients suffering serious gastrointestinal or hematopoietic toxicity” value in data set [2] was 20-30%. For the same compound, for the setting “normal individuals”, the “dose excreted unchanged in the urine” value was 10% and the elimination half life is 0.167 to 0.25 h. Moreover, under setting [7], the “dose excreted unchanged in the urine” value was 90% and the elimination half life is 2.5 h. Also, in data set [3] (in vivo), the “dose of 5-FU transformed (catabolized) by DPD to the inactive dihydrofluorouracil form” value is “more than 80%”. The “injected dose rapidly inactivated by DPD to therapeutically inactive catabolic products” value in data set [3] (injected dose) is “More than 85%”.
Take `Nc1c2c(nc3ccccc13)CCCC2` [Cognex, tacrine hydrochloride]: the “patients showing no change or minimal worsening of their disease” value in data set [4] (Alzheimer's disease patients receiving Cognex) was “about 45%”. Moreover, in data set [4] (setting [8]), the patients minimally improved entry is on record as “About 58%” and the patients much improved result is on record as “about 2%”.
Turning to `O=c1ccn([C@@H]2O[C@H](COP(=O)(O)OP(=O)(O)OP(=O)(O)O)[C@@H](O)[C@H]2O)c(=O)[nH]1` [Uridine triphosphate], in data set [5], the “release of thromboxane A2” value is “concentration-dependent increases”.
With `Nc1ccn([C@@H]2O[C@H](COP(=O)(O)OP(=O)(O)OP(=O)(O)O)[C@@H](O)[C@H]2O)c(=O)n1` [cytidine triphosphate], the “release of thromboxane A2” value in data set [5] is listed as “concentration-dependent increases”.
`Cc1cn([C@H]2C[C@H](O)[C@@H](COP(=O)(O)OP(=O)(O)OP(=O)(O)O)O2)c(=O)[nH]c1=O` [deoxythymidine triphosphate]: the “release of thromboxane A2” value in data set [5] is on record as “concentration-dependent increases”.
On to `OCCN(CCO)c1nc(N2CCCCC2)c2nc(N(CCO)CCO)nc(N3CCCCC3)c2n1` [dipyridamole], for which, in data set [6], the “outcome compared to 5-FU/FA alone” value is listed as “failed to show a difference in outcome”.
In the case of `O=c1ccn([C@@H]2O[C@H](COP(=O)(O)OP(=O)(O)O)[C@@H](O)[C@H]2O)c(=O)[nH]1` [uridine diphosphate], in data set [5], the “release of thromboxane A2” value is “concentration-dependent increases”.
